# Test: gradient 5% acetonitrile 3 min, to 50% in 2 min, to 85% in 15 min, held 3 min, 100 µL/min
# Settings: column: Zorbax Extend-C18 2.1 x 50 mm; eluents: water / acetonitrile, 0.1% formic acid
# Outline: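 Retention time was recorded from adduct peaks, which were picked computationally and each inspected manually. Pure standards ran in mixtures of ~100 molecules on HPLC coupled to a quadrupole time-of-flight mass spectrometer, in positive and negative ionization mode, through a Zorbax Extend-C18 column (2.1 × 50 mm, 1.8 μm) at 100 μL/min. Eluents were water and acetonitrile, each with 0.1% formic acid.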
row,Structure (SMILES),RP-LC retention time [s]
1,Cc1cc(Cl)ccc1S(=O)(=O)N1CCC2(CC1)c1nccn1CCN2C,697
2,CC(C)CCNC(=O)C1CCN(c2cncnc2N2CCN(C)CC2)CC1,561
3,COc1cc(Br)c(C2C(C(=O)N3CCOCC3)=C(C)NC3=C2C(=O)CCC3)cc1OC (stereo unspecified),618
4,CCc1noc2nc(CCC(=O)NCCOC)nc(N3CCCCC3)c12,724
5,CCCNC(=O)C1CCN(c2ccc(SCC(=O)NCc3ccc(OC)cc3)nn2)CC1,621
6,Cc1ncoc1C(=O)N1CCC(c2noc(-c3cccnc3)n2)C1 (stereo unspecified),640
7,COCCN1CCC(N2CCN(S(=O)(=O)c3ccc(F)c(Cl)c3)CC2)C1=O (stereo unspecified),620
8,Cc1ccc(S(=O)(=O)N2CCOCC2)cc1[N+](=O)[O-],751
9,CCN(CC)CCN(CC(=O)N1CCNCC1)S(=O)(=O)c1ccc(C)c(C)c1,576
10,CN(CC1CCOC1)C(=O)Nc1cccc(C(F)(F)F)c1 (stereo unspecified),784
11,COc1ccc(C2Cn3cnc(C(=O)N4CCC(C(=O)NCc5cccs5)CC4)c3CO2)cc1 (stereo unspecified),715
12,COc1cc(OC)cc(-c2nnc(Cc3nc(-c4cccc(C)c4)no3)o2)c1,1080
13,CCc1nnc([C@@H]2CC(F)(F)CN2S(=O)(=O)c2ccc(C)cc2)o1,696
14,O=C(NCc1ccccn1)C(=O)Nc1nccs1,527
15,O=C(CCC1CCCN(c2cc(NC3CC3)ncn2)C1)N1CCCN(c2ncccn2)CC1 (stereo unspecified),618
16,CCCN(CC1CCOC1)C(=O)Nc1ccc(C)cc1Cl (stereo unspecified),902
17,Clc1nc(NCCc2ccccc2)c2cn[nH]c2n1,827
18,CCCNc1nc(N2CCOCC2)nc(N2CC3CC(C2)c2cccc(=O)n2C3)n1 (stereo unspecified),562
19,COCCN1C(=O)[C@H]2CN(Cc3ccc(F)c(Br)c3)C[C@H]2C1=O,680
20,Cc1cccc(C(C)c2cnc[nH]2)c1C (stereo unspecified),689

row,Structure (SMILES),RP-LC retention time [s]
1,O=S(=O)(NCC1CCN(Cc2ccco2)CC1)c1ccc2c(c1)CCCC2,603
2,CCn1cc(C(=O)N[C@H](C(=O)O)C(C)C)c(=O)c2cc3c(cc21)OCO3,681
3,O=S(=O)(NC1CCCC1)c1ccc(-c2cc(C(F)(F)F)on2)o1,1060
4,CCc1ccc(C2=C(C)C(N3CCCN(C(=O)C4CCCO4)CC3)=NS2(=O)=O)cc1 (stereo unspecified),778
5,O=C(NCc1ccccc1)C1CCN(c2cnc(N3CCCC3)nc2)CC1,639
6,O=C(c1nnc(-c2ccc(S(=O)(=O)N3CCCC3)cc2)o1)N1CCN(c2ccccn2)CC1,650
7,COc1cccc(CN2CCn3c(nnc3[C@@H]3C[C@@H](O)CN3C)C2)c1,574
8,CCn1c(C2CCN(S(=O)(=O)c3ccc(Cl)cc3)C2)nc2cccnc21 (stereo unspecified),796
9,COc1ccc(N2CCN(c3ncc(S(=O)(=O)c4ccc(C)c(C)c4)c(N)n3)CC2)cc1,966
10,O=C(CCc1nc(-c2ccc(N3CCCC3)cc2)no1)N1CCN(c2ccc(Cl)cc2)CC1,1240
11,Cc1[nH]nc(-c2c(C)sc(C)c2S(=O)(=O)NCCC2=CCCCC2)c1C,1210
12,COc1cc(OC)cc(C(=O)N2CCCC2COc2ccc(C(=O)N3CCCC3)cc2)c1 (stereo unspecified),807
13,O=S(=O)(CCCOc1ccc(F)cc1)NC1CC1,785
14,Cc1ncc2c(n1)CCN(C(=O)c1ccccc1Br)C2,655
15,CCOC1CCN(C(=O)NC(C)C)CC1,630
16,CCN(CC)CCOC(=O)c1cc(Cl)c(N)cc1OC,647
17,Cc1cccc(N2CCN(c3cc(C)nc4c5c(C)cc(C)nc5nn34)CC2)n1,561
18,Cc1ccc(NC(=O)C2CCN(S(=O)(=O)c3c(C)[nH]c(C)c3C(=O)N3CCCC3)CC2)cc1F,753
19,c1ccc(-c2noc(C3CNC3)n2)cc1,557

# More lines, now with the values ahead:
row,RP-LC retention time [s],Structure (SMILES)
1,745,Cc1cccc(Nc2c(-c3ccc(N(C)C)cc3)nc3ncccn23)c1
2,766,O=C(NC1CCN(c2ccccc2)C1=O)c1ccccc1Br (stereo unspecified)
3,1070,CC1CCN(S(=O)(=O)c2ccc3c(ccn3CC(=O)NCC(C)c3ccccc3)c2)CC1 (stereo unspecified)
4,885,Cc1cc(C2CCCN2C(=O)c2cc(-c3ccccc3F)no2)no1 (stereo unspecified)
5,918,O=C(CS(=O)(=O)c1cn(Cc2cccc(F)c2)c2ccccc12)Nc1ccc(F)cc1
6,1010,O=C(Nc1cc(-c2ccsc2)no1)c1ccc(Cl)cc1
7,856,COc1ccc(-c2cc3nn(CC(=O)N4CCc5ccccc54)c(=O)n3c(C)n2)cc1
8,1040,Cc1ccc(NS(=O)(=O)c2cn(CC(C)C)c3ncccc23)cc1C
9,704,CCc1cccc(NC(=O)C2(C)Oc3cccnc3NC2=O)c1 (stereo unspecified)
10,649,CCOC(=O)Cc1ccc(NC(=O)NCc2c(C)nn(CC)c2C)cc1
11,880,Cc1ccc(-n2c(N3CCCC(C(=O)NCc4cccs4)C3)nc3ccsc3c2=O)cc1 (stereo unspecified)
12,719,CCOc1ccccc1N1CCN(C(=O)C2CCN(c3nccc4c(C)nn(CC)c34)CC2)CC1
13,1160,O=C(c1ccc(Br)cc1)N1CCc2nc(-c3ccc(Cl)cc3)ncc2C1
14,693,CCCC(NC(=O)c1cccc(F)c1)C(=O)Nc1nc2ccccc2[nH]1 (stereo unspecified)
15,781,O=C(NCC(O)c1cccc2ccccc12)NC1CCCCC1 (stereo unspecified)
16,861,CCc1ccc(C(=O)N2CCC3(C2)C(=O)N(C)c2ccccc23)cc1 (stereo unspecified)
17,728,CCCCNC(=O)C1CCN(S(C)(=O)=O)c2ccccc2O1 (stereo unspecified)
18,611,CCN(CCO)CCCOc1ccc2c(Nc3cc(CC(=O)Nc4cccc(F)c4)[nH]n3)ncnc2c1
19,1110,O=S(=O)(c1ccccc1F)N1CCC(c2noc(-c3ccc(F)cc3)n2)CC1
20,816,COc1cc(N2CCN(S(=O)(=O)c3ccccc3F)CC2)nc(OC)n1
21,653,COc1ccccc1NC(=O)Oc1cccc(OC(=O)c2ccccc2)c1
22,728,COc1cccc(C(=O)N2CCC3(CC2)N=C(c2ccccc2)NO3)c1
23,780,CCOc1cc(CNCCc2c[nH]c3ccccc23)ccc1Oc1nnnn1-c1ccccc1
24,909,CCOC(=O)c1cn(Cc2ccccc2C)c2nc(C)ccc2c1=O
25,560,O=C(COc1ccccc1F)NCC1CCN(Cc2cccs2)CC1
26,783,CCN(c1cccc(C)c1)S(=O)(=O)c1cc2n(c1)CCCN(C)C2=O

row,RP-LC retention time [s],Structure (SMILES)
1,852,CSc1cccc(NC(=O)Cn2ccn3nc(-c4ccccc4)c(CO)c3c2=O)c1
2,912,CC(C)CNC(=O)C1CCCN(c2nc3ccsc3c(=O)n2Cc2ccc(F)cc2)C1 (stereo unspecified)
3,762,CCC(C)C(NC(=O)Cc1ccc(OC)c(Cl)c1)C(=O)Nc1nc2ccccc2[nH]1 (stereo unspecified)
4,687,COc1ccccc1CN1CCc2nc(N3CCN(c4ccccc4OC)CC3)ncc2C1
5,789,COCC(=O)Nc1ccc(SCc2nnc(-c3ccc4c(c3)OCO4)o2)cc1
6,1060,COCCc1noc(C2Cc3ccccc3N2C(=O)Nc2ccc(C)c(C)c2)n1 (stereo unspecified)
7,903,O=S(=O)(NCCOc1ccc2c(c1)OCO2)c1ccc(F)c(Cl)c1
8,1110,CCOc1ccccc1CNC(=O)C1CCCN(c2nccnc2Sc2ccccc2)C1 (stereo unspecified)
9,905,Cn1nc(-c2nc(Cc3ccccc3)no2)c2c1CCN(C(=O)Nc1ccccc1)C2
10,829,CC(C)c1ccc(NC(=O)C2CCCN(c3cc(=O)n(C)c(=O)n3C)C2)cc1 (stereo unspecified)
11,847,O=c1oc2cc(O)c(Cl)cc2c2ccccc12
12,1130,CN(C)c1nc2cc(C(=O)NCc3ccncc3)sc2n1-c1ccccc1
13,778,COc1ccc2c(CCNC(=O)c3ccc(F)cc3)c[nH]c2c1
14,760,CCOc1ccc(CNC(=O)C2CCCN2S(=O)(=O)c2cc3c(cc2Cl)NC(=O)CO3)cc1 (stereo unspecified)
15,831,O=C(NC1CCN(C(=O)c2cn(-c3cccc(F)c3)nn2)CC1)c1ccc2ccccc2n1
16,703,Cc1cc(C)cc(NC(=O)Cn2nc3n(c2=O)CCCCC3)c1
17,1260,CCCN(C(C)=O)c1nc(-c2cccc(Br)c2)cs1
18,912,Cc1nc(-c2ccc3c(c2)n(CC(=O)NC2CCCc4ccccc42)c(=O)n3C(C)C)no1 (stereo unspecified)
19,893,O=C(Nc1ccc(Br)cc1)N1CCC(N2CCN(Cc3ccccc3)C2=O)CC1
20,868,COC(=O)c1ccc(NC(=O)C(=O)NCC2CCN(C(=O)Oc3ccccc3)CC2)cc1
21,1250,CC(C)n1c(=O)c2ccccc2n(Cc2nc(-c3cccc(Br)c3)no2)c1=O
22,826,O=C(NC1CCN(c2ccccc2)C1=O)c1ccccc1C(F)(F)F (stereo unspecified)
23,1030,O=c1ccc(-c2cccc(Cl)c2)nn1CCc1nc(-c2ccccc2)no1
24,669,CSc1ccc(Cl)c(C(=O)Nc2ccc3c(N4CCOCC4)ncnc3c2)c1
25,828,COc1ccc(-n2ccn3cc(-c4cc(OC)ccc4OC)nc3c2=O)cc1
26,681,COc1ccc(CN(Cc2ccccc2)Cc2cc(=O)n3ccc(C)cc3n2)cc1

# Source: the METLIN SMRT retention time set (Domingo-Almenara et al. 2019)
